# Data from patent US20230212523A1, “CULTURE MEDIUM FOR LARYNGEAL CANCER EPITHELIAL CELLS, CULTURE METHOD, AND APPLICATION THEREOF” (CAS (Hefei) Institute of Technology Innovation, priority 2020, published 2023).
# B1: fibroblast growth factor 7: growth factor from Sino Biological (protein, UniProt P21781 32-194, looked up)
# Fibroblast growth factor 7: CNDMTPEQMATNVNCSSPERHTRSYDYMEGGDIRVRRLFCRTQWYLRIDKRGKVKGTQEMKNNYNIMEIRTVAVGIVAIKGVESEFYLAMNKEGKLYAKKECNEDCNFKELILENHYNTYASAKWTHNGGEMFVALNQKGIPVRGKKTKKEQKTAHFLPMAIT
# Tested on: primary laryngeal cancer cells (No. 0S0064)
# Experiment: Effects of different factors added to basic medium BM on proliferation of primary laryngeal cancer cells (cell count)
# Assay type: cell-based, human
# Details: factor added to BM, in specific concentration ranges; 10 days of culture on irradiated NIH-3T3; FIGS. 1A-1F
# Description: The cultured NIH-3T3 cells (purchased from ATCC, and cultured in DMEM culture solution containing 10% fetal bovine serum) were digested with 0.25% trypsin (purchased from Thermo Fisher), and the digestion was terminated by using DMEM culture solution (purchased from Corning) containing 5%(v/v) fetal bovine serum (purchased from ExCell Biotech Co., Ltd.), 100 U/mL penicillin and 100 μg/mL streptomycin; the resultant was collected into a 15 mL centrifuge tube and centrifuged at 1500 rpm for 4 minutes, and then the supernatant was discarded. The centrifuged cell sediments were resuspended in the above DMEM culture solution containing 10% fetal bovine serum and were counted with a flow imaging counter (JIMBIO FIL, Jiangsu Jimbio Technology Co., Ltd.). The cells were irradiated with γ-ray of 35 Gy irradiation dose, and then were inoculated in a culture vessel at a density of 2×10^4 cells/cm^2. The cells were incubated in a 37° C. incubator until the cells adhere to the wall. Before the inoculation of primary cells, the culture medium was removed from the culture vessel.
# Preparation of basic medium (abbreviated as BM): BM was prepared by adding 0.2 vol. % of Primocin (purchased from Invivogen, with a concentration of 50 mg/mL) to the commercial DMEM/F-12 medium to provide a final concentration of 100 μg/mL.
# Next, different kinds and concentrations of additive factors (Table 3) were added to the basic medium (BM), so as to prepare culture mediums for laryngeal cancer epithelial cells containing different additive components.
# The culture mediums with different components were added at a volume of 500 μl/well to 48-well plates which were pre-laid with γ-ray irradiated NIH-3T3 cells. Laryngeal cancer cells (No. 0S0064) isolated from laryngeal cancer tissue according to the same method as described in Example 1 were inoculated at a cell count of 4×10^4cells/well in the above-mentioned 48-well culture plates which were pre-laid with γ-ray irradiated NIH-3T3 cells. After surface disinfection, the plates were placed in a 37° C., 5% CO2 incubator (purchased from Thermo Fisher), such that equal numbers of freshly isolated laryngeal cancer cells (No. 0S0064) were cultured under different medium formulations. The culture mediums were replaced and the trophoblastic cells were supplemented every 4 days. after the start of culture. After 10 days of culture, cell counts were performed. The basic medium (BM) without addition of any additive was used as the experimental control.
# As shown in the figures, adding different concentrations of different factors according to Table 3 to BM would result in different effects on cell proliferation.
row,Molecule,effect on cell proliferation (ratio of cell number to that in basic medium BM)
1,"CN1C(=O)C(c2c(F)cccc2F)N(C)c2nc(Nc3ccc(S(N)(=O)=O)cc3)ncc21 (stereo not drawn) [Compound 1, 4-((7-(2,6-difluorophenyl)-5,8-dimethyl-6-oxo-5,6,7,8-tetrahydropteridin-2-yl)amino)benzsulfamide]",certain promoting effects on cell proliferation
2,"Cc1cccc(-c2nn(C(=S)Nc3ccccc3)cc2-c2ccnc3ccccc23)n1 [Compound A83-C1, A83-C1, reference compound]",certain promoting effects on cell proliferation
3,"C[C@@H](N)[C@H]1CC[C@H](C(=O)Nc2ccncc2)CC1 [Compound Y27632, Y27632, reference compound]",certain promoting effects on cell proliferation
4,hepatocyte growth factor: growth factor from Sino Biological,certain promoting effects on cell proliferation
5,insulin-like growth factor 1: growth factor from Sino Biological,certain promoting effects on cell proliferation
6,B1,certain promoting effects on cell proliferation
